Measured values from patent publication US20220339127A1, “DRUGGABLE TARGET TO TREAT RETINAL DEGENERATION” (The United States of America,as represented by the …, priority 2019, published 2022).
Entries after “also recorded” stand apart in the source; their conditions may differ. Blank lines part the entries; values can stand above or below the molecule they belong to.

Key:
iRPE cells [1] = assay: Proteotoxic high throughput screen (LOPAC) and follow up screen: survival of A23187 treated iRPE; format: cell-based, human; settings: for cytoprotective activity in follow up screen: seven-point dose curve, A23187 2.5, 5, 10 μM, two iRPE samples
Method: 10 μM concentration of A23187 was selected for the drug screening, because it provided a bigger margin for cell death rescue. […] Drug treatment along with the stressor, 10 μM A23187 were added on to iRPE cells matured in 384-well plates and cell death was scored 48 hours later by ATP release using the CellTitrGlo assay.
To distinguish false positives from the real signal, a follow up screen on all of the 45 drugs using iRPE derived from two different iPSC lines was performed. The follow up screen was performed at three different A23187 concentrations (2.5, 5, 10 μM) and with seven different concentrations of drugs ranging from 10 nM-1 mM (FIG. 13D-F). […] Overall, the HTS screen provided two drugs for testing in the in vitro AMD model.

CC-HS treated iRPE cells = assay: RNAseq of iRPE co-treated with CC-HS and drugs; format: cell-based, human; settings: listed as L, 745,870
Description: The key hallmark of AMD cellular phenotypes seen in cadaver eyes and observed in the in vitro model are the sub-RPE lipid and protein rich deposits, increased expression of drusen markers, and the loss of epithelial phenotype and RPE functionality. […] Similar results were obtained by RNAseq of iRPE treated with just CC-HS plus the vehicle or co-treated with CC-HS and the two drugs. Both drugs were able to suppress (4-10 fold) the expression of dedifferentiation markers in CC-HS treated iRPE cells (FIG. 13H).

ATG5 = ATG5 immunostaining in CC-HS treated iRPE; format: cell-based, human; settings: co-treatment with CC-HS
iRPE cells [2] = assay: Nile red staining of lipid deposits in CC-HS treated iRPE; format: cell-based, human; settings: co-treatment with CC-HS, vs CC-HS and vehicle
FIBULIN 3 = FIBULIN 3 expression in CC-HS treated iRPE; format: cell-based, human; settings: co-treatment with CC-HS, vs CC-HS and vehicle
iRPE cells [3] = assay: Cell area and hexagonality of CC-HS treated iRPE; format: cell-based, human; settings: co-treatment with CC-HS
rat RPE = assay: Rat model of RPE dedifferentiation (micropulse laser lesion, sub-retinal injection); format: in vivo
Method: To test the in vivo activity of these drugs, a rat model of RPE dedifferentiation was developed. A 0.5 mm area of rat RPE was damaged using a micropulse laser. RPE cells in the lasered area are ablated causing the cells surrounding the laser lesion to undergo dedifferentiation due to the loss of cell-cell contacts. […] Effects of drugs on rat RPE dedifferentiation was tested by injecting either of the two drugs in the sub-retinal space of the rat eye at the time of laser injury.

iRPE monolayer = assay: Transepithelial resistance (TER) of CC-HS treated iRPE monolayer; format: cell-based, human; settings: co-treatment with CC-HS
iRPE cells [4] = assay: Phagocytosis of photoreceptor outer segments by CC-HS treated iRPE; format: cell-based, human; settings: co-treatment with CC-HS
Description: Lastly, it was checked if the drugs rescued mature RPE phenotype and RPE functionality. TER of samples co-treated with drugs and CC-HS was 2-3× higher (p<10^−15) as compared to samples treated with vehicle+CC-HS was similar to TER values of CI-HS treated cells (FIG. 7G). Similarly, the addition of both drugs partially rescued (up to 2×; p<10^−15) the ability of the RPE cells to phagocytose photoreceptor outer segments, as compared to cells treated with CC-HS and the vehicle (FIG. 7H). […] The in vitro and in vivo data provides sufficient evidence to support the potential use of these drugs to delay AMD disease initiation and slow its progression.

AMPK = assay: Phospho-AMPK ELISA in iPSC-RPE of L-ORD patients and unaffected siblings; format: cell-based, human; settings: L-ORD patient iPSC-RPE, 3 mM metformin, 1½-2 weeks
Method: Thus, in FIG. 16b iPSC-RPE were incubated with recombinant CTRP5 globular form (0.2 μg/mL gCTRP5) for 30 min in the presence (+) and absence (−) of serum to evaluate its role in AMPK signaling.
To better elucidate the ADIPOR1-CTRP5 (receptor-ligand) interaction, […] a ligand dose response curve was performed (in serum free media) by exogenously adding increasing concentrations of recombinant full length CTRP5 (FIG. 16c).
AMPK is a sensitive indicator of the cell energy status and is canonically activated by the levels of AMP or ATP (Hardie and Lin, 2017). Therefore, the AMPK activity (in serum free media) of sibling and patient iPSC-RPE under conditions (increased AMP:ATP ratio) known to stimulate AMPK phosphorylation was characterized (FIG. 16d). iPSC-RPE were incubated in serum deprived media for 5 hours (Park et al., 2009) followed by 30 mins exposure to AICAR (an AMP analogue) or BAM15 (a mitochondrial uncoupler to reduce ATP production).
(§1) Metformin treatment consisted of 3 mM metformin added to the apical and basal media for 1½- 2 weeks.

iPSC-RPE [5] = assay: Cell area of POS-fed iPSC-RPE (ZO-1 staining, REShAPE); format: cell-based, human
Description: Accumulating evidence implicates disrupted lipid metabolism as a common pathogenic mechanism in a host of diseases including AMD (Ban et al., 2018; Xu et al., 2018). These metabolic defects are linked to long term health of RPE cells. To determine the consequence of PEDF-R deficiency in RPE cells, L-ORD iPSC-RPE and unaffected siblings were subjected to 7-day photoreceptor outersegment (POS) feeding to exacerbate the high fat-induced epithelial impairment. Concomitantly, it was investigated whether the lipid-lowering effects of metformin, an anti-diabetic drug (Schneider et al., 1990), could reverse RPE dedifferentiation and loss of polarity. Cell size, a key morphological indicator of RPE polarity, was evaluated by staining for ZO-1 (green) to identify cell borders (FIG. 18a) and employing automated image analysis algorithms in REShAPE (a cloud-computing based cell morphometry analyzer) to perform morphometric analysis of RPE cells.
(§2) Patient iPSC-RPE were treated daily beginning with the first day of POS feeding with 3 mM metformin (Fan et al., 2015; Kim et al., 2011).

iPSC-RPE [6] = assay: APOE deposition in POS-fed iPSC-RPE (integrated density); format: cell-based, human; settings: for integrated density of APOE signal, apical / integrated density of APOE signal, basal: 7-days POS feeding
Method: as §2
White arrow indicates basal increase in APOE deposits reminiscent of APOE-rich drusen deposits in AMD (Johnson et al., 2011). […] Image J was used to draw a rectangular region of interest around the apical and basal APOE-positive staining to quantify the localized mean integrated intensity and the data is summarized in FIG. 18d.

iPSC-RPE [7] = assay: VEGF secretion ELISA under hypoxic conditions; format: cell-based, human; settings: for VEGF secretion, apical (Ap) / VEGF secretion, basal (Ba): hypoxic conditions (6h)
Method: Hypoxic stress (3% 02, 6h) was employed to determine how this perturbation regulates VEGF secretion in L-ORD patient iPSC-RPE.

iPSC-RPE [8] = assay: VEGF secretion ELISA under normoxia; format: cell-based, human; settings: L-ORD patients, metformin 3 mM for 1½ to 2 weeks
Description: Polarized secretion of cytokines by the RPE is a hallmark of their mature and differentiated state. Under conditions that promote epithelial to mesenchymal transition (EMT), RPE lose their morphology and their secretion becomes mispolarized. Dedifferentiation of the RPE is a frequently proposed mechanism in retinal degenerations such as AMD. Typically VEGF is primarily secreted basally by the RPE. In L-ORD patients, the polarity of VEGF secretion is lost as assessed by ELISA.

L-ORD patient iPSC-RPE = assay: Expression of EMT-related genes in POS-fed L-ORD patient iPSC-RPE; format: cell-based, human
Description: POS feeding for 7-days also altered the expression profiles of 85 EMT-related genes in L-ORD patient iPSC-RPE (FIG. 18g).

AMPK signaling pathway = assay: Gene expression of AMPK signaling pathway in L-ORD patient RPE; format: cell-based, human; settings: metformin 3 mM for 1½ to 2 weeks
Method: Treatment with metformin (3 mM) for 1½ to 2 weeks results in further decrease in some genes but an upregulation in others. […] In the RPE, the PEDF-R plays an important role in fatty acid metabolism.

L-ORD patient RPE = assay: Apical beta-hydroxybutyrate (B-hB) secretion by RPE; format: cell-based, human
Method: The inventors have hypothesized that increasing fatty acid oxidation and ketone body formation (B-hB) may lead to decreased lipid accumulation in the sub retinal space.
as §1

patients with AMD = assay: Retrospective cohort study of AMD patients concurrently using metformin; format: in vivo, human; settings: patients ages 50-59, with metformin (n=16); 56 without (n=157)
Method: To determine whether there is clinical evidence that metformin could be beneficial in the treatment of AMD, a retrospective cohort study of patients presenting to Kaiser Permanante Medical with AMD was performed to test whether concurrent use of metformin by individuals affected diagnosis.
To determine whether there is clinical evidence that metformin could be beneficial in the treatment of AMD a retrospective cohort study was performed of patients presenting to Kaiser Permanante Medical with AMD to test whether concurrent use of metformin by individuals affected diagnosis.

Stargardt iRPE = assay: Ceramide levels in POS fed Stargardt iRPE; format: cell-based, human
[9] = Mass-spectrometry analysis of metformin in eyes and plasma of treated animals; format: in vivo, mouse; settings: oral dosing, data not shown
Abca4−/− mice = assay: Abca4−/− mouse model, oral metformin, RPE/choroid flat-mount bodipy lipid stain
[10] = metformin treated L-ORD patients
[11] = metformin treated unaffected siblings
[12] = L-ORD patient RPE, prior metformin 2 weeks
[13] = untreated or metformin treated unaffected siblings

Structure (SMILES): Clc1ccc(N2CCN(Cc3c[nH]c4ncccc34)CC2)cc1 [L-745,870]
IC50 (iRPE cells [1]; cell survival of A23187 treated iRPE, read-out: IC50 dose from seven-point dose response curve): 6 µM | cytoprotective activity in follow up screen (iRPE cells [1]): reproducible cell survival; also recorded: linear response the seven-point dose curve and reproducibility between two different iRPE samples | cytoprotective activity in follow up screen (iRPE cells [1]; listed as L, 745,870): reproducible cytoprotective activity | gene expression changes induced by CC-HS treatment (CC-HS treated iRPE cells): reversed gene expression changes induced by CC-HS treatment; also recorded: reversal of the upregulation of NF-KB pathway genes | reduced expression of autophagy protein, ATG5 (ATG5): does not lead to | amount of Nile red positive lipid droplets (iRPE cells [2]): reduced | expression of FIBULIN 3 (FIBULIN 3): reduced | expression of FIBULIN 3 (FIBULIN 3; listed as L745,870): four-fold lower | average cell area (iRPE cells [3]): 162.24 um2 | cell area of CC-HS treated iRPE cells (iRPE cells [3]): reduced area | hexagonality of CC-HS treated iRPE cells (iRPE cells [3]): improved hexagonality | hexagonality score (iRPE cells [3]; 10 represents a perfect hexagon): 8.25 | area of RPE cells at the borders of laser lesion in rat eyes (rat RPE): reduced area | hexagonality of RPE cells at the borders of laser lesion in rat eyes (rat RPE): improved hexagonality | area of RPE cells around the laser lesion (rat RPE; sub-retinal injection at the time of laser injury): 439.55 um2 | monolayer TER (iRPE monolayer): increased monolayer TER | phagocytic ability (iRPE cells [4]): increased

amount of metformin in RPE/choroid, retina, and plasma [9]: comparable amount | hypoglycemia in treated mice (Abca4−/− mice; oral metformin 400 or 800 mg/day): do not lead to hypoglycemia
Structure (SMILES): CN(C)C(=N)N=C(N)N [metformin]
sensitivity of p-AMPK to changes in the AMP:ATP ratio / AICAR (AMPK): restored sensitivity to AICAR; also recorded: regained sensitivity to AICAR; also recorded: restores the sensitivity | POS stress-induced enlargement of patient iPSC-RPE (iPSC-RPE [5]; 3 mM metformin daily from first day of POS feeding): largely prevented the POS stress-induced enlargement | cell area (iPSC-RPE [5]; L-ORD patient iPSC-RPE, 3 mM metformin during 7 days POS feeding): 117.92±0.96 um | cell area (iPSC-RPE [5]; unaffected siblings, metformin during 7 days POS feeding): 93.14±1.56 um | apical and basal APOE deposition (iPSC-RPE [6]; L-ORD patient RPE treated with metformin during POS feeding): ameliorate the accumulation of APOE-containing basal deposits; also recorded: redistribution of the relative proportions of apical and basal APOE deposition | integrated density of APOE signal, apical (iPSC-RPE [6]; [10]): 79.30±37.51 | integrated density of APOE signal, basal (iPSC-RPE [6]; [10]): 13.58±4.58 | integrated density of APOE signal, apical (iPSC-RPE [6]; [11]): 119.98±20.36 | integrated density of APOE signal, basal (iPSC-RPE [6]; [11]): 23.55±6.17 | hypoxia-induced apical VEGF secretion (iPSC-RPE [7]; 1½ week pretreatment with metformin): alleviated the hypoxia-induced apical VEGF secretion | VEGF secretion, apical (Ap) (iPSC-RPE [7]; [12]): 0.59±0.09 | VEGF secretion, basal (Ba) (iPSC-RPE [7]; [12]): 1.8±0.24 | VEGF secretion, apical (Ap) (iPSC-RPE [7]; [13]): 0.98±0.16 | VEGF secretion, basal (Ba) (iPSC-RPE [7]; [13]): 1.64±0.33 | rescue of mispolarized VEGF secretion (iPSC-RPE [7]; hypoxic stress (3% O2, 6h), metformin for 24h, data not shown): insufficient to rescue this phenotype | polarized VEGF secretion (iPSC-RPE [8]): rescue of polarized VEGF secretion | polarized VEGF secretion (iPSC-RPE [8]; listed as Metformin): rescues mispolarized secretion of VEGF | number of EMT genes downregulated (L-ORD patient iPSC-RPE; L-ORD patient iPSC-RPE treated with metformin, <4-fold as printed): 42 genes | expression of EMT related genes (L-ORD patient iPSC-RPE; metformin during 7-days POS feeding): suppresses the expression of EMT related genes | PNPLA2 (PEDF-R) expression (AMPK signaling pathway): significant increase | increase in apical B-hB secretion (L-ORD patient RPE; L-ORD patient RPE, 3 mM metformin 1½-2 weeks): 25% | beta-hydroxybutyrate apical secretion (L-ORD patient RPE; metformin treatment): increased beta-hydroxybutyrate apical secretion | age of onset of nonexudative age-related macular degeneration (patients with AMD): 58.5 years of age | reduction of ceramide levels vs vehicle (Stargardt iRPE; 3 mM metformin, wild type POS for 6 consecutive days): 3-4 fold | ceramide accumulation (Stargardt iRPE; POS-Fed Stargardt iRPE treated with metformin): dramatic reduction | lipid levels / deposits in RPE/choroid flat-mount (Abca4−/− mice; oral metformin 400 or 800 mg/day for three months): drastically reduced lipid levels; also recorded: reduced deposits
